Results on one molecule are retold here after publication PMC8433807, “Scaffold Repurposing of In-House Small Molecule Candidates Leads to Discovery of First-in-Class CDK-1/HER-2 Dual Inhibitors: In Vitro and In Silico Screening” (Molecules, 2021).

SMILES strings stand for the structures.

One experiment concerns the target T1, CDK-1/cyclin B (Homo sapiens, UniProt P06493).
T1 construct: gene CDK1; Reaction Biology Corp. Kinase HotSpot service; with G2/mitotic-specific cyclin-B1
The experiment is described as follows: Kinase HotSpot activity assay, single dose in duplicate. Type of experiment: biochemical. To be noted: 10 µM; 10 μM compound; 10 μM ATP; value is residual kinase activity, not inhibition.

Another experiment deals with T2, HER-2 (Homo sapiens, UniProt P04626).
T2 construct: gene ERBB2; Reaction Biology Corp. Kinase HotSpot service
The description is as above. Type of experiment: biochemical. As to conditions: 10 µM; 10 μM compound; 10 μM ATP; value is residual kinase activity, not inhibition.

T2 sequence (P04626 676-1255 limits assumed): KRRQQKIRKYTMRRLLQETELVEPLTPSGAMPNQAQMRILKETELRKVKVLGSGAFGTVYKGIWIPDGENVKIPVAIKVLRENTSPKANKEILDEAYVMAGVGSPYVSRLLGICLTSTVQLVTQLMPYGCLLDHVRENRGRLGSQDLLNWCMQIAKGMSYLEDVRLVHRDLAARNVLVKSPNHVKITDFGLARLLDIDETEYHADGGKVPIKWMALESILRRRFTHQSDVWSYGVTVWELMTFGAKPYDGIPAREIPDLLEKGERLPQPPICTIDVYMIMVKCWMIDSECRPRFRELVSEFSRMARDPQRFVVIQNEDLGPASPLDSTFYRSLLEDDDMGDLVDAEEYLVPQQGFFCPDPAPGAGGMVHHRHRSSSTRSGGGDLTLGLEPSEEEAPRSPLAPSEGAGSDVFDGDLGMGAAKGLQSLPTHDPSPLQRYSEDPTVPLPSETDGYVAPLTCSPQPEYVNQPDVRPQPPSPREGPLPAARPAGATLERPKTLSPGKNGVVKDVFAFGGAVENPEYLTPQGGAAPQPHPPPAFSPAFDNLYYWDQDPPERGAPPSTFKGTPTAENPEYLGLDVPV
T1 sequence (P06493 whole entry): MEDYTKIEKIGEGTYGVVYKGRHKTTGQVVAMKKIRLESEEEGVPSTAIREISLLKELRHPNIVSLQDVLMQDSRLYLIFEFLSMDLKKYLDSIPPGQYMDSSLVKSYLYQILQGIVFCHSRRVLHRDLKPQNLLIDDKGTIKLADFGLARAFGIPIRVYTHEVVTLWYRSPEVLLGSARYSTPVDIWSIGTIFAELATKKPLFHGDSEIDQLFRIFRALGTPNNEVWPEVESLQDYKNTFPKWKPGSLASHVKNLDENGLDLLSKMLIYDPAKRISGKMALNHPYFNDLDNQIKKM
T1 sequence (P14635 whole entry partner): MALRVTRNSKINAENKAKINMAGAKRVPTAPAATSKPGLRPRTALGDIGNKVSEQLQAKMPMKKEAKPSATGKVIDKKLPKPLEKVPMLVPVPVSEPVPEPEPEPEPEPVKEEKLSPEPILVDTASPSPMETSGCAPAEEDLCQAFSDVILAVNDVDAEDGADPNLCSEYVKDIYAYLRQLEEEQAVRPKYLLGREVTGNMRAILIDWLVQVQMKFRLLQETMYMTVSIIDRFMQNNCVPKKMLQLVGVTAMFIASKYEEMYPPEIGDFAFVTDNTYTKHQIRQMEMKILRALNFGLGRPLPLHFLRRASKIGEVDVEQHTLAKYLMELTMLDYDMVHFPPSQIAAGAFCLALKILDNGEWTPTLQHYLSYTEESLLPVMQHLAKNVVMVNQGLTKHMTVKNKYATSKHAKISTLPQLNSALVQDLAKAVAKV

Consider `O=C(Nc1ccc2c(ccn2C(=O)c2cccc(F)c2)c1)c1ccnnc1` [15l], for which the “% Activity / CDK-1/cyclin B” value on CDK-1/cyclin B came to 51%. The “% Activity / HER-2” value at HER-2 was 52%.
